This data set is described as follows: gradient 5% acetonitrile 3 min, to 50% in 2 min, to 85% in 15 min, held 3 min, 100 µL/min. Particulars: column: Zorbax Extend-C18 2.1 x 50 mm; eluents: water / acetonitrile, 0.1% formic acid. Summed up:
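In both positive and negative ionization mode, a quadrupole time-of-flight mass spectrometer coupled to HPLC analyzed pure standards run in mixtures of ~100 molecules. The Zorbax Extend-C18 column (2.1 × 50 mm, 1.8 μm) was operated at 100 μL/min with water and acetonitrile, each containing 0.1% formic acid. The dead volume was 40 μL and the dwell volume 900 μL. Retention time came from adduct peaks that were computationally picked and individually inspected by hand.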
`COc1cc(Cc2nc(-c3cccc(-c4ccnn4C)c3)no2)cc(OC)c1` gave an RP-LC retention time of 904 s. The same measure for `CCc1nc2cc(N3CCC(C(=O)NCc4ccc(F)cc4)CC3)cnc2nc1CC`: 851 s; for `CCOc1ccc(C2c3[nH]c4ccccc4c3CCN2C(=O)C2CCC2)cc1` (centres undefined): 1210 s; for `CCN(CC)S(=O)(=O)N1CCC(C(=O)N2CCN(Cc3noc4ccccc34)CC2)CC1`: 708 s. The same measure for `Cc1ccc(NC(=O)N2C[C@H](c3nc(-c4ccncc4)no3)[C@@H](C)C2)cc1C`: 858 s; for `Cc1cc(N2CCN(C)CC2)nc2ccc(NC(=S)N3CCCCCC3)cc12`: 556 s; for `CCc1ccc(NC(=O)c2cn3c(n2)CCCC3)cc1`: 644 s. Under `Cc1ccc(C)c(Nc2c(-c3ccc(N(C)C)cc3)nc3ncccn23)c1` stands 996 s; under `COc1ccccc1-c1noc(C2CCCN2C(=O)Nc2ccc(Cl)cc2)n1` (centres undefined), 920 s; under `Cc1cc(=O)n(CC(=O)NCc2ccc(F)cc2F)c(N2CCOCC2)n1`, 756 s. As to `C[C@H]1CN(C(=O)C2CCCC2)C[C@@H]1c1nc(-c2ccccc2)no1`, the RP-LC retention time came to 1060 s.

For `COc1ccc(-c2ccc(=O)n(Cc3nc(-c4ccc(C)cc4)no3)n2)cc1OC`, the RP-LC retention time stood at 925 s. The same measure for `Cc1cccc2nnc(N3CCC(C(=O)NCc4ccccc4)CC3)n12`: 660 s; for `O=C(NCc1cccc(Cl)c1)c1c(O)c2cccnc2n(-c2cccc(F)c2)c1=O`: 1240 s; for `CCSc1nnc(NC(=O)CCCn2nc(-c3ccc(OC)cc3)ccc2=O)s1`: 730 s. In turn, `CCn1cnc(S(=O)(=O)N2CCC(C(=O)NC3CCCCC3)CC2)c1` had an RP-LC retention time of 686 s. The same measure for `Cc1nccn1CC(=O)N1C[C@@H](C)[C@H](c2nc(-c3ccncc3)no2)C1`: 569 s. The same measure for `CCOC(=O)Cc1csc(NC(=O)Cc2cc(-c3cc4ccccc4o3)on2)n1`: 891 s; for `O=S(=O)(CCc1noc(-c2cccc(F)c2)n1)c1ccccc1`: 904 s. Under `FC1(F)C[C@@H](CN2CCOCC2)N(Cc2cn[nH]c2-c2ccccc2)C1` stands 765 s. For the compound `CCCC(=O)OCC1OC(n2ccc(N)nc2=O)C(OC(=O)CCC)C1OC(=O)CCC` (centres undefined), the RP-LC retention time stood at 738 s. In turn, `O=c1c2scc(-c3ccc(F)cc3)c2ncn1CCOc1ccccc1` registered an RP-LC retention time of 1070 s. The same measure for `COc1ccccc1-c1nc(Cn2nnc(-c3nc(-c4ccncc4)no3)c2C)c(C)o1`: 872 s. On to `CCN(CC)c1ccc(NC(=O)c2cccs2)cc1C(=O)O`, for which the RP-LC retention time turned out to be 626 s. The same measure for `Cn1cc(C(=O)NCc2ccc(F)c(Cl)c2)c(S(=O)(=O)N2CCCCC2)n1`: 876 s; for `CCOC(=O)c1c(C)[nH]c(C(=O)N2CCC(CC(=O)NCc3ccccc3Cl)CC2)c1C`: 813 s. Under `CN(C)C[C@@H]1CN(Cc2ccccn2)C[C@H]1NS(=O)(=O)c1cccc(F)c1` stands 553 s; under `CC(C)n1c(=O)sc2cc(S(=O)(=O)N3CCC(C(=O)Nc4ccc(F)c(F)c4)CC3)ccc21`, 1020 s.

`COc1ccc(NC(=O)c2ccc(-c3ccc(-c4noc(C)n4)cc3C)cc2)cc1N1CCN(C)CC1`: the RP-LC retention time is 812 s.

Compound `Cc1ncc2c(n1)C[C@@H]1CC[C@H]2N1C(=O)Nc1ccc(C)c(C)c1` returned an RP-LC retention time of 707 s. The same measure for `COc1ccc(OCc2noc(CNC(=O)c3cc(C)oc3C)n2)cc1`: 817 s; for `O=C(c1cn2cc(Cl)ccc2n1)N1CCN(c2ccccc2F)CC1`: 833 s; for `Cc1cc(C)n2nc(SCC(=O)NC3CCC(C)CC3)nc2n1` (centres undefined): 752 s.

In the case of `Cc1ccc(N2CC(c3noc(-c4ccoc4)n3)CC2=O)cc1` (centres undefined), the RP-LC retention time turned out to be 868 s. Under `Cc1noc(C)c1CCC(=O)Nc1ccccc1NC(=O)c1ccsc1` stands 720 s; under `CSc1ccccc1NC(=O)C(=O)NCC1(CO)CC1`, 727 s; under `Cn1c(SCC(=O)Nc2nc(-c3ccccc3)cs2)nnc1-c1cc2ccccc2o1`, 961 s.

For the compound `CC(C)c1ccc(S(=O)(=O)N2CCc3nc(-c4ccccc4)ncc3C2)cc1`, the RP-LC retention time came out at 1230 s. Under `CCn1ccc2ccn(CC(=O)NCc3ccc4c(c3)OCO4)c(=O)c21` stands 726 s. Under `CCCN(CCC)Cc1ccc(CNC(=O)C2CCCN(c3nnc(N4CCCC4=O)s3)C2)o1` (centres undefined) stands 614 s. The same measure for `COc1ccc2c(c1)CCc1sc(NC(=O)c3ccccc3F)nc1-2`: 1090 s; for `CC(C)NC(=O)c1nn(-c2ccccc2F)nc1CO`: 768 s; for `Cc1cc([N+](=O)[O-])ccc1Nc1cccc(Cl)c1C`: 1030 s. As for `COc1cc2c(cc1OC)C(C(=O)NCCCN1CCCC1=O)C1c3ccccc3CCN1C2=O` (centres undefined), the RP-LC retention time was determined as 663 s. Under `OC(c1cc(C(F)(F)F)nc2c(C(F)(F)F)cccc12)C1CCCCN1` (centres undefined) stands 754 s. `CCn1ccc2c(cc(C(=O)Nc3c(C)cccc3C)n2C)c1=O` yielded an RP-LC retention time of 721 s. Under `Cc1sc(-c2cc(C(F)(F)F)[nH]n2)cc1S(=O)(=O)N1CCC(C)CC1` stands 1100 s; under `O=C(Nc1ccc(N2CCOCC2)cc1)C1CCCN(c2ncc(-c3cccc(F)c3)cn2)C1` (centres undefined), 969 s. Under `CCN1CCN(CCNC(=O)C2CCCN(C(=O)c3[nH]c(C)c(C(=O)OC)c3C)C2)CC1` (centres undefined) stands 565 s; under `CCOC(=O)c1c(CN2CCN(CCO)CC2)n(C)c2cc(Br)c(OC(C)=O)cc12`, 679 s. The same measure for `Cc1nc(-c2noc(-c3ccccc3)n2)cn1CC(=O)NCc1ccc2c(c1)OCO2`: 800 s; for `COc1cccc(S(=O)(=O)N2CCc3nc(-c4ccc(Cl)cc4)ncc3C2)c1`: 1200 s. In turn, `COc1ccc2c(c1)CC(C(=O)NCCCN1CCN(C3CCCCC3)CC1)CO2` (centres undefined) returned an RP-LC retention time of 576 s. `CCCC1(CO)CCCN1C(=O)c1ccc2[nH]ccc2c1` (centres undefined) displayed an RP-LC retention time of 745 s.

`O=C(Cn1cccc(-c2nc(-c3ccc(F)cc3)no2)c1=O)Nc1ccc2c(c1)OCCO2`: the RP-LC retention time was determined as 832 s. Under `Cc1cc(Br)ccc1-c1ccc(CNCCCN(C)C)o1` stands 927 s. `CC1=C(c2ccc(C)cc2)S(=O)(=O)N=C1N1CCC(NC(=O)c2sccc2C)CC1` returned an RP-LC retention time of 596 s. Under `Cc1nn(-c2nc(-c3ccc(F)cc3)cs2)c(C)c1CC(=O)Nc1ccc(Br)cc1` stands 1240 s. The same measure for `O=C(NC1CCCCCC1)c1nc(Nc2ccc(F)cc2)c2ccccc2n1`: 943 s; for `O=C(Nc1cc(F)cc(F)c1)c1csc(-c2ccc(N3CCCC3)nc2)n1`: 853 s. Under `O=C(NCCc1csc(-c2ccccc2)n1)C1CCN(C(=O)c2ccc(F)c(Cl)c2)CC1` stands 1020 s. As for `CC1OC(O[C@H]2C[C@@H](O)[C@]3(CO)[C@H]4[C@H](O)C[C@]5(C)[C@@H](C6=CC(=O)OC6)CC[C@]5(O)[C@@H]4CC[C@]3(O)C2)C(O)C(O)C1O` (some centres undefined), the RP-LC retention time stood at 594 s.

In the case of `Cc1ccc(NC(=O)N(C)CCc2noc(COc3ccccc3)n2)c(C)c1`, the RP-LC retention time was found to be 934 s.

Compound `CN(C)c1cc(OC2CCN(C(=O)c3cccc4[nH]ccc34)C2)ncn1` (centres undefined) displayed an RP-LC retention time of 622 s. The same measure for `Cc1ccc(Nc2c(C(=O)N3CCOCC3)cnc3nc(C)ccc23)cc1`: 598 s; for `O=S(=O)(c1cccnc1)N1CC(n2cc(COc3ccc(F)cc3)nn2)C1`: 798 s; for `O=C(CCc1ccccc1)Nc1ccc2[nH]c(=O)oc2c1`: 713 s. Under `CCc1cc(=O)n(CC(=O)Nc2ccc(C)c(Cl)c2)c(N2CCOCC2)n1` stands 871 s.

The compound `Cc1cc(C)n(CCC(=O)NCC23CCC=C2N(CC2CC2)C(=O)CC3)n1` (centres undefined) registered an RP-LC retention time of 698 s.

`CCOC(=O)c1ccc(NC(=O)NCc2ccccc2)cc1` returned an RP-LC retention time of 817 s. The same measure for `CCC1Oc2ccc(S(=O)(=O)N3CCC(C(=O)Nc4ccc(F)c(Cl)c4)CC3)cc2NC1=O` (centres undefined): 969 s; for `COC(=O)CNC(=O)N1CCCC1c1ccccc1Cl` (centres undefined): 754 s; for `O=[N+]([O-])c1cccnc1Oc1cccnc1`: 716 s. Under `COc1cc(OC)c(NC(=O)Cn2cc3c(n2)CCCC3)cc1Cl` stands 906 s; under `O=C(NC1CC1)C1CCN(S(=O)(=O)c2cc(C(=O)N3CCCCCC3)cs2)CC1`, 713 s. Under `CCOc1ccc(NC(=O)N2CCCC(Cn3cnc4cccnc43)C2)cc1` (centres undefined) stands 640 s; under `COc1ccc(NC(=O)c2ccc3c(c2)OCCO3)c([N+](=O)[O-])c1`, 874 s; under `O=C(Nc1cccc(C(F)(F)F)c1)N1C[C@H]2C[C@H](C1)[C@H]1CCCC(=O)N1C2`, 731 s. On to `Cc1nc2cc(-c3noc(-c4ccc(Cl)s4)n3)ccc2o1`, for which the RP-LC retention time came to 1230 s.

The values are drawn from the METLIN SMRT retention time set (Domingo-Almenara et al. 2019).
